According to patent US9255101B2 (BIOPROJECT, priority 2012, dated 2016):
Where two headings read alike, the source gives them in different places.

Legend:
[1] = molecular target: T1, human H4 receptor (Homo sapiens, UniProt Q9H3N8);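 for IC50: membranes from SH-SY5Y cells with stable human H4 receptor expression, incubated with GDP 10 µM, radioactivity retained on filters counted by liquid scintillation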;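 for Ki: radioligand displacement of a [3H]-labelled ligand from membranes of CHO cells stably expressing human H4 receptor, bound radioactivity counted on filters by liquid scintillation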
[2] = molecular target: T1, human H4 receptor; remark: listed apart in the source
[3] = molecular target: T1, human H4 receptor; experiment: biochemical
[4] = molecular target: T1, human H4 receptor; experiment: biochemical; remark: listed apart in the source

| Compound | IC50 [1] [nM] | Ki [2] [nM] | melting point [°C] | IC50 [3] [nM] | Ki [4] [nM] |
| --- | --- | --- | --- | --- | --- |
| Cc1ccc(-c2cn3c(n2)C(OC2CCN(C)CC2)c2ccccc2CC3)s1 (stereo not drawn) [Example 96, 4-(1-methylpiperidin-4-yloxy)-2-(5-methylthiophen-2-yl)-9,10-dihydro-4H-3,10a-diaza-benzo[f]azulene] | < 300 | < 300 |  |  |  |
| Cc1c(-c2ccc(NS(=O)(=O)C3CC3)cc2)nc2n1CCc1ccccc1C2OC1CCN(C)CC1 (stereo not drawn) [Example 187, 4-[1-methyl-4-(1-methylpiperidin-4-yloxy)-9,10-dihydro-4H-3,10a-diaza-benzo[f]azulen-2-yl]-phenyl-cyclopropanesulfonamide] | < 300 | < 300 |  |  |  |
| Cc1c(-c2ccccc2F)nc2n1CCc1ccccc1C2OC1CCN(C)CC1 (stereo not drawn) [Example 142, 2-(2-fluorophenyl)-1-methyl-4-(1-methylpiperidin-4-yloxy)-9,10-dihydro-4H-3,10a-diaza-benzo[f]azulene] |  |  | 68 | < 30 | < 300 |
| 4-(1-methylpiperidin-4-yloxy)-2-phenylethynyl-9,10-dihydro-4H-3,10a-diaza-benzo[f]azulene [Example 34] | < 300 | < 300 |  |  |  |
| CN1CCC(OC2c3ccccc3CCn3cc(-c4ccccc4)nc32)CC1 (stereo not drawn) [Example 4, 4-(1-methylpiperidin-4-yloxy)-2-phenyl-9,10-dihydro-4H-3,10a-diaza-benzo[f]azulene] |  |  | 113 | < 300 | < 300 |
| CN1CCC(OC2c3ccccc3CCn3c2nc(-c2ccccc2)c3CO)CC1 (stereo not drawn) [Example 257, [4-(1-methylpiperidin-4-yloxy)-2-phenyl-9,10-dihydro-4H-3,10a-diaza-benzo[f]azulen-1-yl]-methanol] |  |  | 120 | < 300 | < 300 |
| COc1ccc(-c2nc3n(c2C)CCc2ccccc2C3OC2CCN(C)CC2)cc1 (stereo not drawn) [Example 156, 2-(4-methoxyphenyl)-1-methyl-4-(1-methylpiperidin-4-yloxy)-9,10-dihydro-4H-3,10a-diaza-benzo[f]azulene] |  |  | 164 | < 30 | < 30 |
| CN1CCC(OC2c3ccccc3CCn3cc(C#Cc4cccnc4)nc32)CC1 (stereo not drawn) [Example 63, 4-(1-methylpiperidin-4-yloxy)-2-pyridin-3-ylethynyl-9,10-dihydro-4H-3,10a-diaza-benzo[f]azulene] |  | < 1000 |  |  |  |
| Cc1ccc(-c2nc3n(c2C)CCc2ccccc2C3OC2CCN(C)CC2)cc1 (stereo not drawn) [Example 153, 1-methyl-4-(1-methylpiperidin-4-yloxy)-2-p-tolyl-9,10-dihydro-4H-3,10a-diaza-benzo[f]azulene] |  |  | 181 | < 30 | < 30 |
| Cc1c(-c2cccc(Cl)c2)nc2n1CCc1ccccc1C2OC1CCN(C)CC1 (stereo not drawn) [Example 145, 2-(3-chlorophenyl)-1-methyl-4-(1-methylpiperidin-4-yloxy)-9,10-dihydro-4H-3,10a-diaza-benzo[f]azulene] |  |  | 72 | < 30 | < 30 |
| COc1cccc(-c2nc3n(c2C)CCc2ccccc2C3OC2CCN(C)CC2)c1 (stereo not drawn) [Example 150, 2-(3-methoxyphenyl)-1-methyl-4-(1-methypiperidin-4-yloxy)-9,10-dihydro-4H-3,10a-diaza-benzo[f]azulene] |  |  | 138 | < 30 | < 30 |
| CCCNC(=O)c1nc2n(c1C)CCc1ccccc1C2OC1CCN(C)CC1 (stereo not drawn) [Example 205, 1-methyl-4-(1-methylpiperidin-4-yloxy)-9,10-dihydro-4H-3,10a-diaza-benzo[f]azulene-2-carboxylic acid propylamide] |  |  | 60 |  | < 1000 |

Second part, the compound after the results:

| IC50 [1] [nM] | Ki [2] [nM] | melting point [°C] | IC50 [3] [nM] | Ki [4] [nM] | Compound |
| --- | --- | --- | --- | --- | --- |
|  |  | 74 | < 30 | < 30 | Cc1ccccc1-c1nc2n(c1C)CCc1ccccc1C2OC1CCN(C)CC1 (stereo not drawn) [Example 147, 1-methyl-4-(1-methylpiperidin-4-yloxy)-2-o-tolyl-9,10-dihydro-4H-3,10a-diaza-benzo[f]azulene] |
|  |  | 132 | < 30 | < 30 | Cc1c(-c2cccc(F)c2)nc2n1CCc1ccccc1C2OC1CCN(C)CC1 (stereo not drawn) [Example 143, 2-(3-fluorophenyl)-1-methyl-4-(1-methylpiperidin-4-yloxy)-9,10-dihydro-4H-3,10a-diaza-benzo[f]azulene] |
|  |  | 66 | < 30 | < 30 | Cc1cccc(-c2nc3n(c2C)CCc2ccccc2C3OC2CCN(C)CC2)c1 (stereo not drawn) [Example 144, 1-methyl-4-(1-methylpiperidin-4-yloxy)-2-m-tolyl-9,10-dihydro-4H-3,10a-diaza-benzo[f]azulene] |
|  |  | 169 | < 30 | < 30 | CN1CCC(OC2c3ccccc3CCn3c2nc(-c2ccc(Br)cc2)c3Cl)CC1 (stereo not drawn) [Example 127, 2-(4-bromophenyl)-1-chloro-4-(1-methylpiperidin-4-yloxy)-9,10-dihydro-4H-3,10a-diaza-benzo[f]azulene] |
|  |  | 185 | < 30 | < 30 | Cc1c(-c2ccc(C=CC(=O)OC(C)(C)C)cc2)nc2n1CCc1ccccc1C2OC1CCN(C)CC1 (stereo not drawn) [Example 151, 3-{4-[1-methyl-4-(1-methylpiperidin-4-yloxy)-9,10-dihydro-4H-3,10a-diaza-benzo[f]azulen-2-yl]-phenyl}-acrylic acid tert-butyl ester] |
|  |  | 78 | < 30 | < 30 | Cc1c(-c2ccccc2Cl)nc2n1CCc1ccccc1C2OC1CCN(C)CC1 (stereo not drawn) [Example 146, 2-(2-chlorophenyl)-1-methyl-4-(1-methylpiperidin-4-yloxy)-9,10-dihydro-4H-3,10a-diaza-benzo[f]azulene] |
|  |  | 142 | < 30 | < 30 | CN1CCC(OC2c3ccccc3CCn3cc(-c4ccc(Br)cc4)nc32)CC1 (stereo not drawn) [Example 81, 2-(4-bromophenyl)-4-(1-methylpiperidin-4-yloxy)-9,10-dihydro-4H-3,10a-diaza-benzo[f]azulene] |
